Data reported in patent US6525000B1, “Method for producing anellated triazoles and new anellated triazoles and their use” (BASF Aktiengesellschaft, priority 1998, dated 2003).

Columns and labels:
Assay in all cases: greenhouse post-emergence herbicidal test
Type in all cases: in vivo
Galium aparine = conditions: GALAP, 100 = complete destruction, 0 = no damage
Description: (§1) The seeds of the test plants were sown separately for each species. For the post-emergence treatment, the test plants were first grown to a plant height of from 3 to 15 cm, depending on plant habit, and only then treated with the active ingredients which had been suspended or emulsified in water. For this purpose, the test plants were either sown directly and grown in the same containers, or they were first grown separately as seedlings and transplanted into the test containers a few days prior to treatment. The rate of application for the post-emergence treatment was 0.0313 or 0.0156 kg of a.s./ha. Dependingon the species, the plants were kept at from 10-25° C. or 20-35° C. The test period extended over 2 to 4 weeks. During this time, the plants were tended, and their response to the individual treatments was evaluated. Evaluation was carried out using a scale from 0 to 100. 100 means no emergence of the plants, or complete destruction of at least the ariel plants, and 0 means no damage or normal course of growth. The plants used in the experiments belonged to the following species: [table]

Polygonum persicaria = conditions: POLPE, 100 = complete destruction, 0 = no damage
Description: as §1

Solanum nigrum = conditions: SOLNI, 100 = complete destruction, 0 = no damage
Description: as §1

Veronica spp. = conditions: VERSS, 100 = complete destruction, 0 = no damage
Description: as §1

Abutilon theoprasti = conditions: ABUTH, 100 = complete destruction, 0 = no damage
Description: as §1

Chenopodium album = conditions: CHEAL, 100 = complete destruction, 0 = no damage
Description: as §1

SMILES: CON=Cc1cc(N2C(=O)C3COCNN3C2=O)c(F)cc1Cl (stereo not drawn) [Ex. 1d, 8-(4′-chloro-2′-fluoro-5′-methoxyiminomethylphenyl)-4-oxa-7,9-dioxo-1,2,8-triaza[4.3.0.]nonane]
- herbicidal activity, evaluation on a scale from 0 to 100 (Galium aparine; 0.0156 kg of a.s./ha): 98
- herbicidal activity, evaluation on a scale from 0 to 100 (Galium aparine; 0.0313 kg of a.s./ha): 98
- herbicidal activity, evaluation on a scale from 0 to 100 (Polygonum persicaria; 0.0156 kg of a.s./ha): 98
- herbicidal activity, evaluation on a scale from 0 to 100 (Polygonum persicaria; 0.0313 kg of a.s./ha): 98
- herbicidal activity, evaluation on a scale from 0 to 100 (Solanum nigrum; 0.0156 kg of a.s./ha): 100
- herbicidal activity, evaluation on a scale from 0 to 100 (Solanum nigrum; 0.0313 kg of a.s./ha): 100
- herbicidal activity, evaluation on a scale from 0 to 100 (Veronica spp.; 0.0156 kg of a.s./ha): 100
- herbicidal activity, evaluation on a scale from 0 to 100 (Veronica spp.; 0.0313 kg of a.s./ha): 100
- herbicidal activity, evaluation on a scale from 0 to 100 (Abutilon theoprasti; 0.0156 kg of a.s./ha): 100
- herbicidal activity, evaluation on a scale from 0 to 100 (Abutilon theoprasti; 0.0313 kg of a.s./ha): 100
- herbicidal activity, evaluation on a scale from 0 to 100 (Chenopodium album; 0.0156 kg of a.s./ha): 98
- herbicidal activity, evaluation on a scale from 0 to 100 (Chenopodium album; 0.0313 kg of a.s./ha): 98
